The nature of this experiment: Inhibition of EGFR in human A-431 cells assessed as antiproliferative activity incubated for 48 hrs by MTS method.

Turning to `COc1cc2c(Nc3ccc(Br)cc3F)ncnc2cc1OCC1CCN(C(=O)Cn2cncc2[N+](=O)[O-])CC1`, the 50% inhibitory concentration (IC50) (usually the concentration that gives 50% inhibition) worked out at 1640 nM.

The values above are taken from BindingDB's records for doi:10.1016/j.ejmech.2020.112994 (North-West University, 2021).
